Experiments:
Test in all cases: relative viability (nuclei count vs DMSO), 5 days (fraction); higher = more cells survive
NCI-H1734 = tested on: NCI-H1734
Outline: (§1)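 A single step with final 0.05% Triton X-100, 1% formaldehyde and 1 ug/ml Hoechst fixed the cells and stained nuclei 5 days after treatment. Lung cancer cell lines in 1536-well plates had been treated by pin tool the day after seeding with one drug alone or a fixed anchor-drug dose plus five library-drug doses (not always all listed) in √10 steps, and nuclei were counted on 4× images. Relative viability is the ratio of nuclei in treated wells to nuclei in vehicle wells, taken as the median of duplicate plates.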

UMC-11 = tested on: UMC-11
Outline: as §1

NCI-H2347 = tested on: NCI-H2347
Outline: as §1

NCI-H1993 = tested on: NCI-H1993
Outline: as §1

SK-LU-1 = tested on: SK-LU-1
Outline: as §1

A-427 = tested on: A-427
Outline: as §1

SW 1573 = tested on: SW 1573
Outline: as §1

NCI-H1792 = tested on: NCI-H1792
Outline: as §1

LCLC-103H = tested on: LCLC-103H
Outline: as §1

NCI-H2228 = tested on: NCI-H2228
Outline: as §1

LC-2-ad = tested on: LC-2-ad
Outline: as §1

NCI-H1915 = tested on: NCI-H1915
Outline: as §1

RERF-LC-KJ = tested on: RERF-LC-KJ
Outline: as §1

NCI-H1975 = tested on: NCI-H1975
Outline: as §1

NCI-H23 = tested on: NCI-H23
Outline: as §1

HCC-366 = tested on: HCC-366
Outline: as §1

NCI-H1755 = tested on: NCI-H1755
Outline: as §1

NCI-H1355 = tested on: NCI-H1355
Outline: as §1

NCI-H650 = tested on: NCI-H650
Outline: as §1

SK-MES-1 = tested on: SK-MES-1
Outline: as §1

HCC-827 = tested on: HCC-827
Outline: as §1

**Q.** Cc1cn(-c2cc(NC(=O)c3ccc(C)c(Nc4nccc(-c5cccnc5)n4)c3)cc(C(F)(F)F)c2)cn1 [Nilotinib] + C[C@]1(O)C[C@@H](c2nc(-c3ccc4ccc(-c5ccccc5)nc4c3)c3c(N)nccn32)C1 [Linsitinib] (partner 1 µM) was tested. Which relative viability (NCI-H1734; first compound 0.001 µM) did it give?
**A.** 0.882

**Q.** What about the relative viability (NCI-H1734; first compound 0.003162 µM) of the same molecule?
**A.** 0.977

**Q.** And the relative viability (NCI-H1734; first compound 0.01 µM)?
**A.** 0.972

**Q.** And the relative viability (NCI-H1734; first compound 0.03162 µM)?
**A.** 0.669

**Q.** What about the relative viability (NCI-H1734; first compound 0.1 µM) of the same molecule?
**A.** 0.561

**Q.** What about the relative viability (UMC-11; first compound 0.001 µM) of the same molecule?
**A.** 1

**Q.** What about the relative viability (UMC-11; first compound 0.003162 µM) of the same molecule?
**A.** 1.26

**Q.** What about the relative viability (UMC-11; first compound 0.01 µM) of the same molecule?
**A.** 1.27

**Q.** And the relative viability (UMC-11; first compound 0.1 µM)?
**A.** 1.13

**Q.** What about the relative viability (NCI-H2347; first compound 0.001 µM) of the same molecule?
**A.** 1.01

**Q.** And the relative viability (NCI-H2347; first compound 0.003162 µM)?
**A.** 1.11

**Q.** What about the relative viability (NCI-H2347; first compound 0.01 µM) of the same molecule?
**A.** 1.1

**Q.** And the relative viability (NCI-H2347; first compound 0.03162 µM)?
**A.** 0.903

**Q.** And the relative viability (NCI-H2347; first compound 0.1 µM)?
**A.** 0.909

**Q.** What about the relative viability (NCI-H1993; first compound 0.001 µM) of the same molecule?
**A.** 0.808

**Q.** And the relative viability (NCI-H1993; first compound 0.003162 µM)?
**A.** 0.74

**Q.** And the relative viability (NCI-H1993; first compound 0.01 µM)?
**A.** 0.702

**Q.** What about the relative viability (NCI-H1993; first compound 0.03162 µM) of the same molecule?
**A.** 0.804

**Q.** What about the relative viability (NCI-H1993; first compound 0.1 µM) of the same molecule?
**A.** 0.769

**Q.** What about the relative viability (SK-LU-1; first compound 0.001 µM) of the same molecule?
**A.** 0.916

**Q.** What about the relative viability (SK-LU-1; first compound 0.003162 µM) of the same molecule?
**A.** 1.25

**Q.** What about the relative viability (SK-LU-1; first compound 0.01 µM) of the same molecule?
**A.** 1.46

**Q.** What about the relative viability (SK-LU-1; first compound 0.03162 µM) of the same molecule?
**A.** 0.987

**Q.** What about the relative viability (SK-LU-1; first compound 0.1 µM) of the same molecule?
**A.** 0.9

**Q.** What about the relative viability (A-427; first compound 0.001 µM) of the same molecule?
**A.** 1.13

**Q.** What about the relative viability (A-427; first compound 0.01 µM) of the same molecule?
**A.** 1.26

**Q.** And the relative viability (A-427; first compound 0.03162 µM)?
**A.** 1.16

**Q.** What about the relative viability (A-427; first compound 0.1 µM) of the same molecule?
**A.** 1.01

**Q.** What about the relative viability (SW 1573; first compound 0.001 µM) of the same molecule?
**A.** 0.939

**Q.** And the relative viability (SW 1573; first compound 0.003162 µM)?
**A.** 0.935

**Q.** And the relative viability (SW 1573; first compound 0.01 µM)?
**A.** 0.73

**Q.** What about the relative viability (SW 1573; first compound 0.03162 µM) of the same molecule?
**A.** 0.756

**Q.** And the relative viability (SW 1573; first compound 0.1 µM)?
**A.** 0.841

**Q.** What about the relative viability (NCI-H1792; first compound 0.001 µM) of the same molecule?
**A.** 0.334

**Q.** And the relative viability (NCI-H1792; first compound 0.01 µM)?
**A.** 0.583

**Q.** What about the relative viability (NCI-H1792; first compound 0.1 µM) of the same molecule?
**A.** 0.565

**Q.** What about the relative viability (LCLC-103H; first compound 0.001 µM) of the same molecule?
**A.** 1.19

**Q.** And the relative viability (LCLC-103H; first compound 0.003162 µM)?
**A.** 1.17

**Q.** What about the relative viability (LCLC-103H; first compound 0.03162 µM) of the same molecule?
**A.** 0.783

**Q.** And the relative viability (LCLC-103H; first compound 0.1 µM)?
**A.** 1.17

**Q.** And the relative viability (NCI-H2228; first compound 0.001 µM)?
**A.** 0.578

**Q.** What about the relative viability (NCI-H2228; first compound 0.003162 µM) of the same molecule?
**A.** 0.862

**Q.** What about the relative viability (NCI-H2228; first compound 0.01 µM) of the same molecule?
**A.** 0.603

**Q.** What about the relative viability (NCI-H2228; first compound 0.03162 µM) of the same molecule?
**A.** 0.657

**Q.** And the relative viability (NCI-H2228; first compound 0.1 µM)?
**A.** 0.623

**Q.** And the relative viability (LC-2-ad; first compound 0.001 µM)?
**A.** 0.862

**Q.** What about the relative viability (LC-2-ad; first compound 0.003162 µM) of the same molecule?
**A.** 0.985

**Q.** What about the relative viability (LC-2-ad; first compound 0.01 µM) of the same molecule?
**A.** 1.02

**Q.** And the relative viability (LC-2-ad; first compound 0.03162 µM)?
**A.** 0.897

**Q.** What about the relative viability (LC-2-ad; first compound 0.1 µM) of the same molecule?
**A.** 0.735

**Q.** And the relative viability (NCI-H1915; first compound 0.001 µM)?
**A.** 1.01

**Q.** And the relative viability (NCI-H1915; first compound 0.003162 µM)?
**A.** 1.09

**Q.** And the relative viability (NCI-H1915; first compound 0.03162 µM)?
**A.** 1.06

**Q.** And the relative viability (NCI-H1915; first compound 0.1 µM)?
**A.** 1.09

**Q.** And the relative viability (RERF-LC-KJ; first compound 0.001 µM)?
**A.** 0.882

**Q.** And the relative viability (RERF-LC-KJ; first compound 0.003162 µM)?
**A.** 0.941

**Q.** And the relative viability (RERF-LC-KJ; first compound 0.01 µM)?
**A.** 1.05

**Q.** And the relative viability (RERF-LC-KJ; first compound 0.03162 µM)?
**A.** 0.853

**Q.** What about the relative viability (RERF-LC-KJ; first compound 0.1 µM) of the same molecule?
**A.** 0.917

**Q.** What about the relative viability (NCI-H1975; first compound 0.001 µM) of the same molecule?
**A.** 0.913

**Q.** What about the relative viability (NCI-H1975; first compound 0.003162 µM) of the same molecule?
**A.** 1.23

**Q.** What about the relative viability (NCI-H1975; first compound 0.01 µM) of the same molecule?
**A.** 1.03

**Q.** And the relative viability (NCI-H1975; first compound 0.03162 µM)?
**A.** 0.688

**Q.** What about the relative viability (NCI-H1975; first compound 0.1 µM) of the same molecule?
**A.** 0.822

**Q.** What about the relative viability (NCI-H23; first compound 0.001 µM) of the same molecule?
**A.** 0.556

**Q.** And the relative viability (NCI-H23; first compound 0.003162 µM)?
**A.** 0.686

**Q.** And the relative viability (NCI-H23; first compound 0.01 µM)?
**A.** 0.713

**Q.** And the relative viability (NCI-H23; first compound 0.03162 µM)?
**A.** 0.49

**Q.** And the relative viability (NCI-H23; first compound 0.1 µM)?
**A.** 0.579

**Q.** What about the relative viability (HCC-366; first compound 0.001 µM) of the same molecule?
**A.** 0.577

**Q.** And the relative viability (HCC-366; first compound 0.003162 µM)?
**A.** 1.33

**Q.** What about the relative viability (HCC-366; first compound 0.01 µM) of the same molecule?
**A.** 0.857

**Q.** What about the relative viability (HCC-366; first compound 0.03162 µM) of the same molecule?
**A.** 0.64

**Q.** What about the relative viability (HCC-366; first compound 0.1 µM) of the same molecule?
**A.** 0.472

**Q.** And the relative viability (NCI-H1755; first compound 0.001 µM)?
**A.** 1.02

**Q.** What about the relative viability (NCI-H1755; first compound 0.003162 µM) of the same molecule?
**A.** 1.15

**Q.** And the relative viability (NCI-H1755; first compound 0.01 µM)?
**A.** 1.12

**Q.** And the relative viability (NCI-H1755; first compound 0.03162 µM)?
**A.** 1.07

**Q.** And the relative viability (NCI-H1755; first compound 0.1 µM)?
**A.** 0.894

**Q.** What about the relative viability (NCI-H1355; first compound 0.001 µM) of the same molecule?
**A.** 0.815

**Q.** And the relative viability (NCI-H1355; first compound 0.003162 µM)?
**A.** 1.11

**Q.** And the relative viability (NCI-H1355; first compound 0.01 µM)?
**A.** 1.16

**Q.** What about the relative viability (NCI-H1355; first compound 0.03162 µM) of the same molecule?
**A.** 0.836

**Q.** And the relative viability (NCI-H1355; first compound 0.1 µM)?
**A.** 0.934

**Q.** And the relative viability (NCI-H650; first compound 0.001 µM)?
**A.** 0.81

**Q.** And the relative viability (NCI-H650; first compound 0.003162 µM)?
**A.** 0.778

**Q.** What about the relative viability (NCI-H650; first compound 0.01 µM) of the same molecule?
**A.** 0.925

**Q.** What about the relative viability (NCI-H650; first compound 0.03162 µM) of the same molecule?
**A.** 0.84

**Q.** And the relative viability (NCI-H650; first compound 0.1 µM)?
**A.** 0.686

**Q.** And the relative viability (SK-MES-1; first compound 0.003162 µM)?
**A.** 1.29

**Q.** And the relative viability (SK-MES-1; first compound 0.01 µM)?
**A.** 1.16

**Q.** What about the relative viability (SK-MES-1; first compound 0.03162 µM) of the same molecule?
**A.** 1.12

**Q.** And the relative viability (HCC-827; first compound 0.001 µM)?
**A.** 0.944

**Q.** What about the relative viability (HCC-827; first compound 0.003162 µM) of the same molecule?
**A.** 1.08

**Q.** And the relative viability (HCC-827; first compound 0.01 µM)?
**A.** 1.08

**Q.** And the relative viability (HCC-827; first compound 0.1 µM)?
**A.** 0.941
